Measured values: patent publication US20240335428A1, “PATEAMINE A DERIVATIVE FOR TREATING PANCREATIC CANCER” (Baylor University, priority 2023, published 2024)

Assays:
[1] = Protein binding in human plasma; type: in vitro ADME
c-MYC = experiment: Western blot of oncoproteins in PDAC cell lines; type: cell-based; settings: PDAC cell lines MIA PaCa-2 and AsPC-1, western blot
Description: (§1) FIGS. 3A and 3B are images of western blots showing the effect of DMDAPatA and DMPatA in PDAC cell lines (MiaPaca-2 and AsPc-1). In the figures, MZ735 is DMPatA and PatA is DMDAPatA.
(§2) FIGS. 5A and 5B are images of western blots showing the effect of DMPatA and DMDAPatA on oncoproteins c-MYC and Cyclin D1 in PDAC cell lines: MIA PaCa-2; PANC-1; Capan-1; and AsPC-1. In the figures, MZ is DMPatA and PatA is DMDAPatA.
(§3) eIF4A inhibitors selectively repress the expression levels of key proteins in PDAC cell lines. FIGS. 3A and 3B are images of western blots showing the effect of DMDAPatA and DMPatA in PDAC cell lines (MIA PaCa-2 and AsPC-1). […] These proteins are commonly used as controls in western blot analysis and are so-called because they are typically not susceptible to agents that alter gene or protein expression.
(§4) FIGS. 5A and 5B are images of western blots showing the effect of DMPatA and DMDAPatA on oncoproteins c-MYC and Cyclin D1 in PDAC cell lines: MIA PaCa-2; PANC-1; Capan-1; and AsPC-1.

Cyclin D1 = experiment: Western blot of oncoproteins in PDAC cell lines; type: cell-based; settings: PDAC cell lines MIA PaCa-2 and AsPC-1, western blot
Description: as §1, §2, §3, §4

[2] = compared with parent natural product PatA; cited from earlier work
[3] = tested on: PDAC cell lines: MIA PaCa-2; PANC-1; Capan-1; AsPC-1; experiment: Cell proliferation / viability assay (CellTiter-Glo); type: cell-based; settings: for cell proliferation (viability): PDAC cells, 48 h and 72 h, Cell-Titer Glo
Protocol: FIGS. 2A-2D are viability curves of DMDAPatA and DMPatA in four representative PDAC cell lines: MIA PaCa-2; Panc-1; Capan-1; and AsPC-1. PDAC cell lines were treated with DMPatA and DMDAPatA at the indicated concentrations for 48 h and 72 h. Cell viability was determined using Cell-Titer Glo (Promega). Viability (%, Y-axis) was plotted against drug concentration (log nM, X-axis). In the figures, MZ is DMPatA and PatA is DMDAPatA.
See Example 2. FIGS. 2A-2D are viability curves of DMDAPatA and DMPatA in four representative PDAC cell lines: MIA PaCa-2; PANC-1; Capan-1; and AsPC-1.
In this example, the effectiveness of DMPatA and DMDAPatA in reducing the proliferation of PDAC cancer cell lines is described.
Cell viability was measured using CellTiter-Glo® reagent (Promega, #G7570), according to the manufacturer's instructions. Briefly, cells were seeded at a density of […] in white 96-well plates and allowed to grow overnight. Cells were then treated with/without the combination and single agents as described earlier and incubated 37° C. and 5% CO2 for appropriate time points. After incubation assay reagent was added to the cells and luminescent signal values were quantified using microplate reader (PHERAstar® FS, BMG LABTECH, Ortenberg, Germany).

CD44 = CD44 level (anti-CD44 confocal imaging, western blot); type: cell-based; settings: MIA PaCa-2 cells, 5 nM DMPatA, 24 h, CTCF (P<0.05)
Protocol: (§5) CD44 is the cell surface receptor for hyaluronic acid. Dense stroma with high levels of hyaluronic acid and extracellular matrix are among factors that are said to contribute to drug resistance in PDAC due to reduced permeability of anticancer therapies. Reduction of CD44 could facilitate the activity of chemotherapy or other combination therapy. MIA PaCa-2 cells were treated with 5 nM of DMPatA for 24 h versus untreated control. Cells were stained for HA using biotinylated-HABP and anti-CD44. FIG. 6A compares the analysis of the corrected total cell fluorescence (CTCF) based on data extracted from confocal imaging (P<0.05) and FIG. 6B compares western blot showing the effect of DMPatA and DMDAPatA on stromal proteins HAS3 and CD44. In the figures, MZ and MZ735 are DMPatA and PatA is DMDAPatA.
(§6) MIA PaCa-2 cells were treated with 5 nM of DMPatA for 24 h versus untreated control. Cells were stained for HA using biotinylated-HABP and anti-CD44. FIG. 6A compares the analysis of the corrected total cell fluorescence (CTCF) based on data extracted from confocal imaging (P<0.05) and FIG. 6B compares western blot showing the effect of DMPatA and DMDAPatA on stromal proteins HAS3 and CD44.

hyaluronic acid = experiment: Hyaluronic acid staining (biotinylated-HABP, confocal imaging, CTCF); type: cell-based; settings: MIA PaCa-2 cells, 5 nM DMPatA, 24 h versus untreated control, CTCF (P<0.05)
Protocol: as §5, §6

Mia-Paca-2 cells = experiment: Mouse xenograph model (subcutaneous Mia-Paca-2 tumors); type: in vivo, female athymic nude mice
Description: In this example, the effectiveness of DMPatA in reducing tumor size in a mouse xenograph model is described.
Intraperitoneal therapy for PDAC. One of the most difficult complications of pancreatic cancer is the development of peritoneal carcinomatosis, which may occur as the presenting manifestation of PDAC, much as occurs with ovarian cancer, or may appear late in the course of the disease. In either case, the prognosis for peritoneal carcinomatosis and cytology-positive ascites is grim, at times portending survival of only a few weeks. […] The second major problem is that recurrent ascites requires frequent large volume paracentesis—which depletes the patient of protein and nutrients. […] Des-methyl pateamine A (DMPatA, MZ735) can be used as a novel intraperitoneal therapy able to directly treat intraperitoneal carcinomatosis. In certain embodiments, the safe intraperitoneal dose is 0.075-0.1 mg/kg, as established in a mouse xenograpgh model.
Fifteen female athymic nude mice were implanted with 5×10^6 Mia-Paca-2 cells, injected subcutaneously into the right flank with 50% Matrigel. Once tumors reached 100-200 mm^3 in volume, mice were randomized and enrolled into the study with three treatment groups including vehicle, MZ735 0.075, MZ735 0.1 mg/kg.
Mice were dosed once every four days interperitoneally (IP) for 28 days. Weights were taken twice per week to ensure overall health. All formulations were prepared on a day prior to, or on the day of dosing, using a serial dilution method and stored at 4° C. Formulations for this study were made using a vehicle of 10% Ethanol, 10% Cremophor EL, 4% glucose, and 76% PBS.
Body weights and tumor measurements were recorded twice weekly per OPTIC core-Tumor Growth Measurement at Columbia University.
At the end of the study mice were euthanized via CO2 asphyxiation, per IACUC approved Euthanasia protocol at Columbia University.

GAPDH and beta-actin = experiment: Western blot of housekeeping proteins; type: cell-based; settings: PDAC cell lines
Description: as §1, §3

CC(/C=C/C(C)=C/[C@@H]1Cc2nc(cs2)CCCCC(=O)O[C@@H](C)C/C(C)=C/C=C\C(=O)O1)=C\CN(C)C [DMDAPatA, des-methyl des-amino pateamine A]
protein binding in human plasma [1]: highly protein bound
protein level of c-MYC (c-MYC): inhibiting the protein level
protein level of Cyclin D1 (Cyclin D1): inhibiting the protein level
stability relative to PatA [2]: more stable
cell proliferation (viability) [3]: inhibit cell proliferation
levels of CD44 (CD44): reduce the levels
levels of hyaluronic acid (hyaluronic acid): reduce the levels

des-methyl pateamine A [DMPatA]
protein level of c-MYC (c-MYC): inhibiting the protein level
protein level of Cyclin D1 (Cyclin D1): inhibiting the protein level
volume of subcutaneously implanted tumors (Mia-Paca-2 cells; 0.075-0.1 mg/kg IP once every four days for 28 days, Mia-Paca-2 xenograft): reduce the volume of subcutaneously implanted tumors
absorption via the peritoneum (Mia-Paca-2 cells; intraperitoneal dose 0.075-0.1 mg/kg, mouse): can be absorbed via the peritoneum
safe intraperitoneal dose (Mia-Paca-2 cells; mouse xenograph model, intraperitoneal): 0.075 to 0.1 mg/kg
cell proliferation (viability) [3]: inhibit cell proliferation
potency relative to DMDAPatA ([3]; viability curves in four PDAC cell lines): greater potency relative to DMDAPatA
expression of housekeeping proteins GAPDH and beta-actin (GAPDH and beta-actin): stably expressed
levels of CD44 (CD44): reduce the levels
levels of hyaluronic acid (hyaluronic acid): reduce the levels
